Results published in patent US20260248842A1, “METHOD FOR TRANSIENT ACIDIFICATION OF WOUNDS” (SePRO Corporation, priority 2023, published 2026).

Experiment: Early studies: permeation and transient acidification of pig skin
Conditions: same amounts of ammonia equivalents and sulfuric acid in comparison solutions

## N.N.O=S(=O)(O)O [ammonium sulfate]
  permeation of pig skin and transient acidification: neither of the acidified ammonium salts solutions permeated pig skin
